# Measured values: patent US20070249670A1, “Glycogen Phosphorylase Inhibitor Compounds and Pharmaceutical Compositions Thereof” (SMITHKLINE BEECHAM CORPORATION, priority 2004, published 2007)
# Structures can show the parent of a compound that is named as a salt.
# Molecular target: T1, human liver glycogen phosphorylase a (HLGPa) (Homo sapiens, UniProt P06737)
# T1 construct: creating a full-length cDNA fused at the 5′ end to codons for methionine-glycine-alanine-histidine; 6xHis tag (leader Met-Gly-Ala-His6-Gly-Gly) (N); made in house; host or cells: E. coli (bacterial expression plasmid pTXK1007LTev)
# T1 sequence (P06737 2-847 limits assumed): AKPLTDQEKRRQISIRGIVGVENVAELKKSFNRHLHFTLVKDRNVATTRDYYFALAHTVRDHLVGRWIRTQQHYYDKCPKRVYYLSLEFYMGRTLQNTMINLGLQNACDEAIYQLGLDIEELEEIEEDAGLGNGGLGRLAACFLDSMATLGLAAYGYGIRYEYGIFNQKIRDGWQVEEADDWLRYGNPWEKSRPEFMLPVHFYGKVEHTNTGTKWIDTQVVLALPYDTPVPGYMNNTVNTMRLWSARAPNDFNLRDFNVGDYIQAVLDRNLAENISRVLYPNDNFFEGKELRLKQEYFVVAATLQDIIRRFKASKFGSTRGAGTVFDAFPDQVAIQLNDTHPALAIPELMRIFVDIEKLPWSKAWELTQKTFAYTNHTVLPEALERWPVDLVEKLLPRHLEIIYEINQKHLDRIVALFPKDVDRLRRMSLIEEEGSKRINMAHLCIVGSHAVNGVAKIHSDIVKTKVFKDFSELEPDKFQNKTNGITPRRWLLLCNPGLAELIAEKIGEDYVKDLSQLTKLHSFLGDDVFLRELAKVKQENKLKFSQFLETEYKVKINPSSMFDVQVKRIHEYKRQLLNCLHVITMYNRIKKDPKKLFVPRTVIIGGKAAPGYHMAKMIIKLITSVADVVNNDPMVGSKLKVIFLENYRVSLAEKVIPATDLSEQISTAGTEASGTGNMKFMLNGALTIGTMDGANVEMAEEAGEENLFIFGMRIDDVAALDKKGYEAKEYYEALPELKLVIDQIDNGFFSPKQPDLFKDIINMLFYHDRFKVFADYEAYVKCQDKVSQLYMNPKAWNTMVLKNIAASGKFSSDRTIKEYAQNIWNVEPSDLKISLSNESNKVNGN
# Assay: Human liver glycogen phosphorylase a enzymatic activity assay (coupled, fluorescent resorufin readout, with and without 10 mM glucose)
# Type: biochemical
# Conditions: human liver glycogen phosphorylase a enzymatic activity assay
row,IC50,SMILES
1,0.45 µM,"Cc1cccc(Cl)c1NC(=O)Nc1cc2ccccc2cc1C(=O)N[C@@H](Cc1cnc[nH]1)C(=O)O [Example 61, N-[3-({[(2-chloro-6-methylphenyl)amino]carbonyl}amino)-2-naphthoyl]-L-histidine trifluoroacetate]"
2,0.26 µM,"Cc1cccc(Cl)c1NC(=O)Nc1cc2ccccc2cc1C(=O)N[C@@H](Cc1ccccc1)C(=O)O [Example 62, N-[3-({[(2-chloro-6-methylphenyl)amino]carbonyl}amino)-2-naphthoyl]-L-phenylalanine]"
3,2.73 µM,"Cc1cccc(Cl)c1NC(=O)Nc1cc2ccccc2cc1C(=O)N[C@@H](CCCNC(=N)N)C(=O)O [Example 63, N-[3-({[(2-chloro-6-methylphenyl)amino]carbonyl}amino)-2-naphthoyl]-L-arginine]"
4,0.45 µM,"Cc1cccc(Cl)c1NC(=O)Nc1cc2ccccc2cc1C(=O)N[C@@H](Cc1ccc(O)cc1)C(=O)O [Example 64, N-[3-({[(2-chloro-6-methylphenyl)amino]carbonyl}amino)-2-naphthoyl]-L-tyrosine]"
5,0.27 µM,"Cc1cccc(Cl)c1NC(=O)Nc1cc2ccccc2cc1C(=O)N[C@@H](Cc1c[nH]c2ccccc12)C(=O)O [Example 65, N-[3-({[(2-chloro-6-methylphenyl)amino]carbonyl}amino)-2-naphthoyl]-L-tryptophan trifluoroacetate]"
6,7.16 µM,"Cc1cccc(Cl)c1NC(=O)Nc1cc(F)c(F)cc1C(=O)N[C@@H](CC(=O)O)C(=O)O [Example 66, N-[2-({[(2-chloro-6-methylphenyl)amino]carbonyl}amino)-4,5-difluorobenzoyl]-L-aspartic acid]"
7,19.8 µM,"COc1cc(NC(=O)Nc2c(C)cccc2Cl)c(C(=O)N[C@@H](CC(=O)O)C(=O)O)cc1OC [Example 67, N-[2-({[(2-chloro-6-methylphenyl)amino]carbonyl}amino)-4,5-dimethoxybenzoyl]-L-aspartic acid]"
8,7.54 µM,"Cc1cccc(Cl)c1NC(=O)Nc1cc(F)c(F)cc1C(=O)N[C@@H](CC(C)C)C(=O)O [Example 68, N-[2-({[(2-chloro-6-methylphenyl)amino]carbonyl}amino)-4,5-difluorobenzoyl]-L-leucine]"
9,13.8 µM,"COc1cc(NC(=O)Nc2c(C)cccc2Cl)c(C(=O)N[C@@H](CC(C)C)C(=O)O)cc1OC [Example 69, N-[2-({[(2-chloro-6-methylphenyl)amino]carbonyl}amino)-4,5-dimethoxybenzoyl]-L-leucine]"
10,5.97 µM,"CC[C@H](C)[C@H](NC(=O)c1cc(F)c(F)cc1NC(=O)Nc1c(C)cccc1Cl)C(=O)O [Example 70, N-[2-({[(2-chloro-6-methylphenyl)amino]carbonyl}amino)-4,5-difluorobenzoyl]-L-isoleucine]"
11,22.3 µM,"CC[C@H](C)[C@H](NC(=O)c1cc(OC)c(OC)cc1NC(=O)Nc1c(C)cccc1Cl)C(=O)O [Example 71, N-[2-({[(2-chloro-6-methylphenyl)amino]carbonyl}amino)-4,5-dimethoxybenzoyl]-L-isoleucine]"
12,10.9 µM,"Cc1cccc(Cl)c1NC(=O)Nc1cc(F)c(F)cc1C(=O)N[C@@H](Cc1ccccc1)C(=O)O [Example 72, N-[2-({[(2-chloro-6-methylphenyl)amino]carbonyl}amino)-4,5-difluorobenzoyl]-L-phenylalanine]"
13,11.6 µM,"COc1cc(NC(=O)Nc2c(C)cccc2Cl)c(C(=O)N[C@@H](Cc2ccccc2)C(=O)O)cc1OC [Example 73, N-[2-({[(2-chloro-6-methylphenyl)amino]carbonyl}amino)-4,5-dimethoxybenzoyl]-L-phenylalanine]"
14,6.58 µM,"Cc1cccc(Cl)c1NC(=O)Nc1cc(F)c(F)cc1C(=O)N[C@@H](Cc1c[nH]c2ccccc12)C(=O)O [Example 74, N-[2-({[(2-chloro-6-methylphenyl)amino]carbonyl}amino)-4,5-difluorobenzoyl]-L-tryptophan trifluoroacetate]"
15,0.76 µM,"COc1cc(NC(=O)Nc2c(C)cccc2Cl)c(C(=O)N[C@@H](Cc2c[nH]c3ccccc23)C(=O)O)cc1OC [Example 75, N-[2-({[(2-chloro-6-methylphenyl)amino]carbonyl}amino)-4,5-dimethoxybenzoyl]-L-tryptophan trifluoroacetate]"
16,3.74 µM,"O=C(Nc1ccccc1Cl)Nc1cc(F)c(F)cc1C(=O)N[C@@H](Cc1c[nH]c2ccccc12)C(=O)O [Example 76, N-[2-({[(2-chlorophenyl)amino]carbonyl}amino)-4,5-difluorobenzoyl]-L-tryptophan trifluoroacetate]"

row,IC50,SMILES
1,9.05 µM,"COc1cc(NC(=O)Nc2ccccc2Cl)c(C(=O)N[C@@H](Cc2c[nH]c3ccccc23)C(=O)O)cc1OC [Example 77, N-[2-({[(2-chlorophenyl)amino]carbonyl}amino)-4,5-dimethoxybenzoyl]-L-tryptophan trifluoroacetate]"
2,9.11 µM,"Cc1cccc(C)c1NC(=O)Nc1cc(F)c(F)cc1C(=O)N[C@@H](CC(=O)O)C(=O)O [Example 78, N-[2-({[(2,6-dimethylphenyl)amino]carbonyl}amino)-4,5-difluorobenzoyl]-L-aspartic acid]"
3,18.7 µM,"Cc1cccc(C)c1NC(=O)Nc1cc(F)c(F)cc1C(=O)N[C@@H](CC(C)C)C(=O)O [Example 79, N-[2-({[(2,6-dimethylphenyl)amino]carbonyl}amino)-4,5-difluorobenzoyl]-L-leucine]"
4,8.73 µM,"CC[C@H](C)[C@H](NC(=O)c1cc(F)c(F)cc1NC(=O)Nc1c(C)cccc1C)C(=O)O [Example 80, N-[2-({[(2,6-dimethylphenyl)amino]carbonyl}amino)-4,5-difluorobenzoyl]-L-isoleucine]"
5,14.7 µM,"Cc1cccc(C)c1NC(=O)Nc1cc(F)c(F)cc1C(=O)N[C@@H](Cc1ccccc1)C(=O)O [Example 81, N-[2-({[(2,6-dimethylphenyl)amino]carbonyl}amino)-4,5-difluorobenzoyl]-L-phenylalanine]"
6,9.41 µM,"COc1cc(NC(=O)Nc2c(C)cccc2C)c(C(=O)N[C@@H](Cc2c[nH]c3ccccc23)C(=O)O)cc1OC [Example 82, N-[2-({[(2,6-dimethylphenyl)amino]carbonyl}amino)-4,5-dimethoxybenzoyl]-L-tryptophan trifluoroacetate]"
7,34.1 µM,"CCc1cccc(CC)c1NC(=O)Nc1ccccc1C(=O)N[C@@H](CC(=O)O)C(=O)O [Example 83, N-[2-({[(2,6-diethylphenyl)amino]carbonyl}amino)benzoyl]-L-aspartic acid]"
8,0.39 µM,"Cc1cccc(Cl)c1NC(=O)Nc1cc2ccccc2cc1C(=O)N[C@@H](CC(=O)O)C(=O)O [Example 84, N-[3-({[(2-chloro-6-methylphenyl)amino]carbonyl}amino)-2-naphthoyl]-L-aspartic acid]"
9,0.57 µM,"Cc1cccc(Cl)c1NC(=O)Nc1cc2ccccc2cc1C(=O)NCC(=O)O [Example 85, N-[3-({[(2-chloro-6-methylphenyl)amino]carbonyl}amino)-2-naphthoyl]glycine]"
10,0.7 µM,"Cc1cccc(Cl)c1NC(=O)Nc1cc2ccccc2cc1C(=O)N[C@@H](CCC(=O)O)C(=O)O [Example 86, N-[3-({[(2-chloro-6-methylphenyl)amino]carbonyl}amino)-2-naphthoyl]-L-glutamic acid]"
11,24.5 µM,"Cc1cccc(Cl)c1NC(=O)Nc1ccccc1C(=O)N[C@@H](CC(=O)O)C(=O)O [Example 87, N-[2-({[(2-chloro-6-methylphenyl)amino]carbonyl}amino)benzoyl]-L-aspartic acid]"
12,5.2 µM,"Cc1cccc(Cl)c1NC(=O)Nc1cc(Cl)ccc1C(=O)N[C@@H](CC(=O)O)C(=O)O [Example 88, N-[4-chloro-2-({[(2-chloro-6-methylphenyl)amino]carbonyl}amino)benzoyl]-L-aspartic acid]"
13,17.4 µM,"Cc1cccc(Cl)c1NC(=O)Nc1ccc(I)cc1C(=O)N[C@@H](CC(=O)O)C(=O)O [Example 89, N-[2-({[(2-chloro-6-methylphenyl)amino]carbonyl}amino)-5-iodobenzoyl]-L-aspartic acid]"
14,22.9 µM,"O=C(O)C[C@H](NC(=O)c1cc2ccccc2cc1NC(=O)Nc1ccccc1Br)C(=O)O [Example 90, N-[3-({[(2-bromophenyl)amino]carbonyl}amino)-2-naphthoyl]-L-aspartic acid]"
15,7.88 µM,"Cc1cccc(Cl)c1NC(=O)Nc1cc2ccccc2cc1C(=O)N[C@@H](Cc1ccc(Br)cc1)C(=O)O [Example 91, 4-bromo-N-[3-({[(2-chloro-6-methylphenyl)amino]carbonyl}amino)-2-naphthoyl]-L-phenylalanine]"
16,0.59 µM,"CCc1cccc(CC)c1NC(=O)Nc1cc2ccccc2cc1C(=O)N[C@H](C(=O)O)C1CCCCC1 [Example 93, (2S)-cyclohexyl({[3-({[(2,6-diethylphenyl)amino]carbonyl}amino)-2-naphthalenyl]carbonyl}amino)ethanoic acid]"
